# Test results taken from patent publication US20040229821A1, “Orally administrable pharmaceutical compositions and methods for preventing food-drug interaction” (priority 2003, published 2004).
# Where two headings read alike, the source gives them in different places.
# Tests used:
# trypsin [1] = target: T1, trypsin (Bos taurus, UniProt P00760); assay: Activity (IC50) on trypsin; format: biochemical; settings: stated in words
# T1 construct: gene PRSS1
# T1 sequence (P00760 24-246): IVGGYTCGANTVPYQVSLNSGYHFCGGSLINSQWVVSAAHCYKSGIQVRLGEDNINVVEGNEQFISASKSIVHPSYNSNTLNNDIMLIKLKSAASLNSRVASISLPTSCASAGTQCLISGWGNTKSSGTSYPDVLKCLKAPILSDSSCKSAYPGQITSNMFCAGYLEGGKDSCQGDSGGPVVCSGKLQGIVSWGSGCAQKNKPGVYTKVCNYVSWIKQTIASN
# Source text: (§1) Other oral thrombin inhibitors under development than Drug A have been reported to show changes of bioavailability by food intake. […] The above two substances have different activities not only on thrombin but also on trypsin. […] In other words, the bioavailability of S18326 with higher activity on trypsin was more affected by food intake than S31922. […] Its activity on trypsin has not yet been reported, but since it is an ariginine (Arg) derivative like S18326, it is anticipated to have high activity on trypsin. […] The bioavailability of melagatran is affected by food intake because it has a charge in the intestinal pH, and so its membrane permeability is decreased [D. Gustafsson et al., The direct thrombin inhibitor melagatran and its oral prodrug H376/95: Intestinal absorption properties, biochemical and pharmacodynamic effects, Thrombosis Res., 101(2001) 171-181]. In order to improve the decreased membrane permeability, its prodrug was prepared and confirmed to have improved bioavailability and to prevent the bioavailability variance by food intake. However, melagatran is also one in the series of strong basic group, amidine, and thus has a strong inhibitory effect on trypsin.
# [2] = Pharmacokinetic test of Drug A in rats, empty stomach vs after food intake; format: in vivo; settings: oral, absorbed well on an empty stomach
# Source text: as §1
# [3] = Pharmacokinetic test of Drug A in dogs, empty stomach vs after food intake; format: in vivo; settings: oral
# Source text: as §1
# Drug A is an orally active thrombin inhibitor, and is effective for preventing or treating the formation of thrombus. […]
# thrombin = thrombin (Homo sapiens, UniProt P00734); settings: cited from earlier work
# trypsin [4] = target: T1, trypsin; settings: cited from earlier work
# [5] = dogs, oral; cited from earlier work
# [6] = humans, oral; cited from earlier work
# [7] = rats, oral; cited from earlier work
Molecule,IC50 (thrombin),IC50 (trypsin [4]),Bioavailability after food intake [5],Bioavailability on an empty stomach [5],Change of bioavailability after food intake [6],further results
"N=C(N)c1ccc(CNC(=O)[C@@H]2CCCN2C(=O)[C@H](NCC(=O)O)C(c2ccccc2)c2ccccc2)s1 [Drug A, (2S)-N-{5-[amino(imino)methyl]-2-thienyl}methyl-1-{(2R)-2-[(carboxymethyl)amino]-3,3-diphenylpropanoyl}-2-pyrrolidinecarboxamide]",,,,,,"Activity on the digestive enzyme trypsin (trypsin [1]): high activity; Change of bioavailability when administered after food intake [2]: remarkably decreased; Bioavailability after food intake relative to empty stomach ([3]; dog, in vivo, solution of Drug A, read-out: Bioavailability after food intake compared with on an empty stomach): 10%; Change of bioavailability when administered after food intake ([3]; absorbed well on an empty stomach): remarkably decreased"
CC(=O)N[C@H](Cc1ccccc1)C(=O)N(CC(=O)N[C@@H](CCCN=C(N)N)B(O)O)C1CCCC1 [Example S-18326],3.6 nM,20 nM,6%,27%,,
NCCCCC(NC(=O)C1(C(=O)NCCc2ccccc2)CCCC1)B(O)O (stereo not drawn) [Example S-31922],43 nM,340 nM,22%,36%,,
N=C(N)c1ccc(CNC(=O)[C@@H]2CCN2C(=O)[C@H](NCC(=O)O)C2CCCCC2)cc1 [melagatran],,,,,remarkably decreased,
R-Piq-Pro-Arg-H,,,,,remarkably decreased,Change of bioavailability after food intake [7]: remarkably decreased
